Experimental data as given in patent US6551812B1, “Compositions and methods relating to the peroxisomal proliferator activated receptor-α mediated pathway” (CuraGen Corporation, priority 1998, dated 2003).
Where two headings read alike, the source gives them in different places.

Tests used:
[1] = tested on: genes responsive to PPARαL treatment in rat liver; test: GENECALLING differential gene expression analysis of liver from rats treated with PPARα ligand GW9578 vs vehicle control; assay type: in vivo
Protocol: The present invention is based in part on the discovery of changes in expression patterns of multiple nucleic acid sequences, including sequences encoding known genes as well as heretofore undescribed nucleic acid sequences, in rodent liver cells following exposure to a ligand for a PPARα. The differences in gene expression were identified following administration of 1.5 mg/kg/day of a PPARα-specific ligand named GW9578. This compound is described in Brown et al., J. Med. Chem.42:3785-8, 1999, whose contents are incorporated herein in their entirety.
GW9578 was administered to male 10-14 week old Sprague Dawley rats in b.i.d. dosing for 3 days. The animals were sacrificed 24 hours following the last dose, and liver tissue was analysis using the GENECALLING® sequence identification methods described U.S. Pat. No. 5,871,697. The contents of this application are incorporated herein by reference in their entirety.
The GENECALLING® sequence identification method is performed by digesting a cDNA with a pair of restriction endonucleases. The digested fragments are differentially tagged at both the 3- and 5′-termini, and amplified via polymerase chain reaction (PCR) with a fluorescent label that is detected upon subsequent electrophoresis. In the studies with PPARα ligand GW9578, a total of 48 different reactions were performed, each with a unique pair of restriction enzymes. […] This number represents a non-redundant coverage of approximately 85% of the total number of hepatic genes.
The hepatic response to treatment with the PPARαL compound was determined by comparing in triplicate the relative abundance of each of the 8973 gene fragments in the PPARαL-treated vs. the PPARα-untreated rodents. Comparison was performed using commercially available GENESCAPE® expression analysis software. PPARαL administration detectably altered the expression of 218 of the 8973 (2.4%) hepatic genes fragments by greater than 1.5-fold. […] Novel genes, corresponding to fragments with no match within the database, were subsequently isolated and sequenced (FIG. 4). […] There was an excellent correlation between the expression analysis results derived by the GENECALLING® sequence identification methods in comparison with those results previously obtained by the use of reverse transcriptase-based PCR (“RT-PCR”) (See FIG. 3).
Harlan Sprague Dawley rats 10-14 weeks old were treated with oral tablet doses of: (i) PPARαL in an n-methylglucamine carrier twice daily (b.i.d) for a total of 3 days (3 rats total) or (ii) PPARαL in an n-methylglucamine carrier twice daily (b.i.d.) for a total of 3 days (3 rats total) or (iii) the n-methylglucamine carrier alone twice daily (b.i.d.) for a total of 3 days (3 rats total). On the fourth day, approximately 12 hours following the last dose of drug the animals were sacrificed. Liver and adipose tissue were harvested from all animals and snap frozen in liquid nitrogen.
Total cellular RNA was isolated with Trizol (GIBCO-BRL; Baltimore Md.) using a one-tenth volume of bromochloropropane (Molecular Research Corp.; Cincinnati, Ohio) to facilitate phase separation. Contaminating DNA was removed by treatment with DNase I (Promega Biotech; Milwaukee, Wis.) in the presence of 0.01 M DTT (GIBCO-BRL; Baltimore, Md.) and 1 Unit/1 RNAsin (Promega Biotech; Milwaukee, Wis.). Following phenol/chloroform extraction, RNA quality was evaluated by spectrophotometry and formaldehyde agarose gel electrophoresis, and RNA yield was estimated by fluorometry with OliGreen® (Molecular Probes; Eugene, Oreg.). Poly(A)^+ RNA was prepared from […] of total RNA by use of oligo(dT) paramagnetic beads (PerSeptive Biosynthesis; Boston, Mass.), and quantitated with fluorometry.
First strand cDNA was prepared from […] of poly(A)^+ RNA with 200 pmoles oligo(dT)25V (where V=A, C or G) (PerSeptive Biosynthesis; Boston, Mass.) using 40 Units of SuperScript II reverse transcriptase (GIBCO-BRL; Baltimore, Md.). […]

Histidine decarboxylase = conditions: rat stomach; cited from earlier work
CYP2B1 [2] = conditions: in vivo mouse model; cited from earlier work
CYP2B1 [3] = conditions: rat hepatocytes; cited from earlier work
GSTa isoform = conditions: rat livers, precancerous change; cited from earlier work
acetyl CoA carboxylase = conditions: co-incubation of hepatocytes with ligand; cited from earlier work
[4] = rat liver, 1.5 mg/kg/day b.i.d. 3 days, vs vehicle control
[5] = rat liver, treatment with PPARαL
[6] = rat liver, upon treatment with PPARα ligand

CCCCCCCN(CCc1ccc(SC(C)(C)C(=O)O)cc1)C(=O)Nc1ccc(F)cc1F [GW9578]
number of the 8973 hepatic gene fragments whose expression was altered by greater than 1.5-fold ([1]; 1.5 mg/kg/day, b.i.d. for 3 days, male Sprague Dawley rats, liver, treated vs untreated, triplicate): 218
D-aminolevulinate synthetase up-regulation [1, 4]: 4 fold
acetoacetyl-CoA thiolase upregulation [1, 4]: 100 fold
acetyl-CoA-decarboxylase modulation [1, 4]: +2 fold
apolipoprotein A-I modulation [1, 4]: −2 fold
carnitine octanoyl transferase upregulation [1, 4]: 4 fold
catalase upregulation [1, 4]: 12 fold
down-regulation of metallothionein 1 [1, 4]: 100 fold
epoxide hydrolase upregulation [1, 4]: 10 fold
novel isoform of acyl-CoA oxidase upregulation [1, 4]: 10 fold
porphobilinogen deaminase up-regulation [1, 4]: 60 fold
reduction in steroid 3-α-dehydrogenase transcript levels [1, 4]: 60 fold
steroid 3-delta-dehydrogenase modulation [1, 4]: off
very long chain acyl CoA synthetase upregulation [1, 4]: 4 fold
novel gene similar in sequence to mouse carnitine acetyltransferase, expression ([1]; rat liver, following PPARα ligand treatment): moderately upregulated
histidine decarboxylase gene upregulation ([1]; rat liver, following exposure to PPARα ligand): six
17-α-hydroxysteroid dehydrogenase IV transcription [1, 5]: up-regulated
genes encoding the other steroid catabolism enzymes (steroid-3-α-dehydrogenase, hydroxysteroid sulfotransferase, CYP p450 M1, SMP-2, UDP-glucosuronyl transferase 21) [1, 5]: downregulated
acetyl-CoA carboxylase expression [1, 6]: upregulation
decrease in expression of the gene for glutathione S transferase Ya subunit [1, 6]: three
differential regulation of ATP citrate lyase and fatty acid synthase [1, 6]: not detected
malic enzyme expression [1, 6]: upregulation
stearyl-CoA desaturase expression [1, 6]: upregulation

CC(C)(Oc1ccc(C2CC2(Cl)Cl)cc1)C(=O)O (stereo not shown) [ciprofibrate]
histidine decarboxylase expression (Histidine decarboxylase): upregulated

CCOC(=O)C(C)(C)Oc1ccc(Cl)cc1 [clofibrate]
gene encoding CYP2B1, expression (CYP2B1 [2]): not been observed to change

CC(C)(Oc1ccc(Cl)cc1)C(=O)O [clofibric acid]
gene encoding CYP2B1, expression (CYP2B1 [3]): upregulated

CC(C)(Oc1ccc(C2CCCc3ccccc32)cc1)C(=O)O (stereo not shown) [nafenopin]
GSTa isoform level (GSTa isoform): decrease
acetyl CoA carboxylase activity (acetyl CoA carboxylase): reduced
